Measurements as given in patent publication US20250100962A1 (CITY OF HOPE, priority 2023, published 2025).
“Also recorded” adds a separate entry of the source.

Experiments:
primary preadipocytes = assay: Adipogenic differentiation of primary preadipocytes; type: cell-based, mice; conditions: for mature adipocyte formation: 0.5 and 1 μM
Description: Primary preadipocyte isolation and adipogenic induction. The stromal vascular fraction containing preadipocytes were isolated from subcutaneous fat pads, as described (Chatterjee, Nam, Guo et al., 2013). Briefly, fat pads were cut into pieces and digested using 0.1% collagenase Type 1 with 0.8% BSA at 37° C. in a horizontal shaker for 60 minutes, passed through Nylon mesh and centrifuged to collect the pellet containing the stromal vascular fraction with preadipocytes. Preadipocytes were cultured in F12/DMEM supplemented with bFGF (2.5 ng/ml), expanded for two passages and subjected to differentiation in 6-well plates at 90% confluency. Adipogenic differentiation was induced for 2 days in medium containing 10% FBS, 1.6 μM insulin, 1 μM dexamethasone, 0.5 mM IBMX, 0.5 μM rosiglitazone before switching to maintenance medium for 4 days with insulin only. Nobiletin at indicated concentrations were added for the entire differentiation time course. Oil-red-O and Bodipy staining. These stainings for neutral lipids during adipogenic differentiation were performed as previously described (Nam et al., 2015). Briefly, for oil-red-O staining, cells were fixed using 10% formalin and incubated using 0.5% oil-red-O solution for 1 hour. Bodipy 493/503 was used at 1 mg/L together with DAPI for 15 minutes, following 4% paraformaldehyde fixation and permeabilization with 0.2% triton-X100. Immunoblot analysis. Total protein was extracted using lysis buffer containing 3% NaCl, 5% Tris-HCl, 10% Glycerol, 0.5% Triton X-10 in MilliQ water with protease inhibitor cocktail. 20-40 μg of total protein was resolved on 10% SDS-PAGE gels followed by immunoblotting on PVDF membranes (Bio-rad). Membranes were developed by chemiluminescence (SuperSignal West Pico, Pierce Biotechnology) and signals were obtained via a chemiluminescence imager (Amersham Imager 680, GE Biosciences).

[1] = tested on: human primary myoblasts derived from DMD patients; assay: MTT cell viability of human DMD primary myoblasts; type: cell-based
Description: Cells were seeded at 5×10^4 concentration in 100 μl culture medium into 96 wells flat bottom microplates and treated after 24 h with desired compounds and controls. After desired incubation periods, cells were treated with MTT labeling reagent 1× (MTT (3-[4,5-dimethylthiazol-2-yl]-2,5-diphenyltetrazolium bromide labeling reagent, 5 mg/ml in PBS, Roche Cell Proliferation Kit I (MTT)) and Solubilization buffer 1× (10% SDS in 0.01 M HCl and left overnight. Next morning absorbance was measured at 570 nm and 700 nm on microplate (ELISA) reader (TECAN infinite M200pro). The mean and standard deviation values were calculated for each well and graphed.
FIGS. 41A-41D. Effect of Chlorhexidine (CHX) and CM002 treatment on viability of mouse and human myoblasts. To determine potential toxic effects of CHX and CM002, we treated mouse C2C12 myoblast cell line with increasing concentrations from 0.2-5 μM for 48 hours and determined cell viability using the MTT assay (FIG. 41A). […] Considering the inflammatory milieus in dystrophic muscles, we further tested the tolerance of myoblasts to these molecules in the presence of inflammatory stimuli, a cytokine cocktail (CC) consisted of 10 ng/mL IL-1β, 100 ng/mL IFN-γ and 25 ng/mL of TNF-α (FIG. 41B). […] Lastly, human primary myoblasts derived from Duchene Muscular Dystrophy (DMD) patients were used to determine their tolerance to these compounds.

[2] = tested on: primary bone marrow-derived macrophages; assay: NLRP3 inflammasome and CHOP expression in primary bone marrow-derived macrophages; type: cell-based; conditions: for NLRP3 and CHOP with LPS stimulation: LPS challenge; for NLRP3 expression, basal unstimulated: immunoblot
Text: FIGS. 46A-46D. […] Chronic inflammation in dystrophic muscle, due to the persistent muscle damage with sustained degeneration and regeneration cycles, is a significant component of the pathogenic characteristics of muscular dystrophy contributing to muscle wasting. We thus determined potential ameliorative effects of CHX and CM002 on muscle inflammation in the mdx mice.

mdx mice = assay: Direct intramuscular injection into Tibialis Anterior muscle of mdx mice; type: in vivo, mouse; conditions: for Evans Blue Dye (EBD) positive area (muscle damage): 150 ul of 2 uM daily for 3 days; for amount of satellite cells / satellite cell proliferation (EdU+/Pax7+ within Pax7+ pool): 150 μl of 2 μM daily for three days; for transcript levels of clock regulators and myogenic factors / expression of pro-inflammatory cytokines TNF-α, IL-6 and iNOS: RT-qPCR; for transcript levels of clock regulators and myogenic factors: mdx muscle; for expression of pro-inflammatory cytokines TNF-α, IL-6 and iNOS: mdx TA muscle, 3 daily doses; for reduction of creatine kinase (CK) levels, ex vivo TA explants: media of TA explant cultured 24 hours; for myofiber size distribution (cross section area) / Pax7 and CyclinD1 / new myofiber formation (eMyHC staining) / protein levels of clock regulators Bmal1, CLOCK, Rev-erbα / protein levels of myogenic factors: three daily doses; for Pax7 and CyclinD1 / new myofiber formation (eMyHC staining) / protein levels of clock regulators Bmal1, CLOCK, Rev-erbα / protein levels of myogenic factors: 50 μl of 2 μM
Text: FIGS. 17A-17C. In vivo effect of chlorhexidine on inducing regenerative repair of mdx dystrophic muscle. Based on the effects of CHX on promoting myogenic differentiation, we postulated that it may enhance myogenesis in vivo to promote regenerative repair in dystrophic muscle. […] FIG. 17A: Initial preliminary data was obtained from mice injected with one or two injections (one day apart) of CHX dissolved in DMSO. […] FIG. 17B: Next, we further tested the in vivo effect of CHX by three doses using PBS solution to avoid potential membrane damage by DMSO. […] FIG. 17C: Lastly, we examined the effect of triple CHX injection on clock and myogenic factor proteins in individual and individual mdx muscle. […] Variability observed between individual mice could be due to the in vivo injection.
FIG. 18. In vivo effect of chlorhexidine on inducing nascent myofiber regeneration of mdx dystrophic muscle. To directly examine effect of CHX in vivo injection on dystrophic muscle repair, we performed immunofluorescence staining of embryonic myosin heavy chain (eMyHC) to identify nascent regenerated myofiber using frozen TA cross sections from mdx mice following triple injections. Laminin staining was used to delineate basal lamina of myofiber.
FIGS. 43A-43D. CHX and CM002 promote regenerative myogenesis in dystrophic mdx mice. Based on the effect of CHX and CM002 on promoting regenerative myogenesis, we next tested whether they exert protective effects in dystrophic disease conditions via local intramuscular delivery in the mdx mice, an established model for muscular dystrophy.
FIGS. 44A-44D. CM002 and CHX stimulate satellite cell proliferative expansion and myogenic gene induction in mdx mice. As Pax7 and CyclinD1 levels were increased by CM002 and CHX in mdx TA, we directly examined the proliferation of satellite cells via EdU labeling with co-staining for Pax7 to identify satellite cells.
FIGS. 45A-45D. CM002 and CHX protects against dystrophic muscle damage in mdx mice. Given that local delivery of CHX and CM002 stimulated new myofiber formation to promote regenerative repair, we next examined whether these effects lead to protection against dystrophic injury. […] Most importantly, using ex vivo TA explants, we determined creatine kinase secretion from treated TA muscles as a direct indicator to assess muscle injury.
FIGS. 46A-46D. CHX and CM002 ameliorate inflammatory milieu of muscular dystrophy. Chronic inflammation in dystrophic muscle, due to the persistent muscle damage with sustained degeneration and regeneration cycles, is a significant component of the pathogenic characteristics of muscular dystrophy contributing to muscle wasting. We thus determined potential ameliorative effects of CHX and CM002 on muscle inflammation in the mdx mice. […] To further test whether the reduction of inflammation in muscle could be due to direct modulation of macrophage pro-inflammatory activities, we determined CHX and CM002 effects in primary bone marrow-derived macrophages.

SMILES	mature adipocyte formation (primary preadipocytes; six days of differentiation)	NLRP3 and CHOP with LPS stimulation [2]	NLRP3 expression, basal unstimulated [2]	Evans Blue Dye (EBD) positive area (muscle damage) (mdx mice)	amount of satellite cells (mdx mice)	satellite cell proliferation (EdU+/Pax7+ within Pax7+ pool) (mdx mice)	transcript levels of clock regulators and myogenic factors (mdx mice)	expression of pro-inflammatory cytokines TNF-α, IL-6 and iNOS (mdx mice)	reduction of creatine kinase (CK) levels, ex vivo TA explants (mdx mice)	myofiber size distribution (cross section area) (mdx mice)	Pax7 and CyclinD1 (mdx mice)	new myofiber formation (eMyHC staining) (mdx mice)	protein levels of clock regulators Bmal1, CLOCK, Rev-erbα (mdx mice)	protein levels of myogenic factors (mdx mice)	further results
[H]/N=C(\N/C(=N/[H])NCCCCCCNC(=N)NC(=N)Nc1ccc(Cl)cc1)Nc1ccc(Cl)cc1 [CHX, chlorhexidine]	dose-dependent, marked effect on suppressing mature adipocyte formation	failed to inhibit NLRP3 inflammasome and displayed stimulatory effect at high concentrations accompanied with CHOP induction	able to attenuate its expression	significantly reduced the areas stained positive for EBD	not significantly altered	sufficient to stimulate satellite cells proliferative expansion in dystrophic muscle to a similar degree	corresponding increase of their transcript levels	consistent reduction of expression of the pro-inflammatory cytokines examined	approximately 50%	striking left shift toward smaller myofibers	also induced	increased new myofiber formation	significantly elevated	elevated protein levels of myogenic factors	FASN, terminal differentiation marker (primary preadipocytes; day 6 of differentiation): markedly attenuated the terminal differentiation marker of adipocytes, FASN; adipogenic factor induction (primary preadipocytes; day 6 of differentiation): only resulted in a tendency toward suppressing adipogenic factor induction; concentration up to which viability is not significantly compromised ([1]; with cytokine cocktail): up to 5 μM; concentration inducing CHOP (ER stress marker) [2]: ≥ 1000 nM; protein expression of clock regulators (CLOCK, Rev-erbα) and myogenic factors (Myf5, Myogenin) (mdx mice; one or two injections, 50 μl of 2 μM in DMSO): stronger inductions by two doses; Pax7 protein (mdx mice; three doses in PBS, pooled samples): strongly induced; myogenic factors and Bmal1 protein in individual mdx muscle (mdx mice; triple injection, n=3): two of three mice injected with CHX demonstrated marked inductions of myogenic factors together with up-regulation of Bmal1 protein; eMyHC staining (nascent regenerated myofiber) (mdx mice; triple injections, vs PBS): robust eMyHC indicative of newly-regenerated myofibers
CCCCCC/C=N/C(=N)NC(=N)Nc1ccc(Cl)cc1 [CM002]	strongly inhibited their differentiation; also recorded: dose-dependent reductions by CM002 at 0.5 and 1 μM concentration	suppressed NLRP3 in the presence of LPS without inducing CHOP	able to attenuate its expression	significantly reduced the areas stained positive for EBD	not significantly altered	sufficient to stimulate satellite cells proliferative expansion in dystrophic muscle to a similar degree	corresponding increase of their transcript levels	consistent reduction of expression of the pro-inflammatory cytokines examined	~35%	striking left shift toward smaller myofibers	also induced	increased new myofiber formation	significantly elevated with stronger effect by CM002	elevated protein levels of myogenic factors	reduction of adipocyte formation in Bmal1-deficient (BMKO) preadipocytes (primary preadipocytes; six days of differentiation): severely blunted; adipocyte formation, compound given after initial two days of adipogenic induction (primary preadipocytes; vs presence throughout differentiation): still retained its efficacy of blocking adipocyte formation largely to the same extent; cell death at 5 μM ([1]; human, 5 μM): displaying sensitivity to cell death by CM002 treatment at this concentration
